Reference: paper PMC10218348 (International Journal of Molecular Sciences, 2023)
Read-outs that look alike come from different tables or passages of the source.

What was measured:
parasite (Trypanosoma) = system: parasite (Trypanosoma); design: method as in PMID 35385806; settings: read-out: EC50 antiparasitic activity; cited from earlier work
[1] = target: human Cathepsin L (hCatL) (Homo sapiens, UniProt P07711); assay: Cathepsin L inhibition, fluorescence-based assay (Cbz-Phe-Arg-AMC); format: biochemical; settings: for inhibition at 20 µM: 20 µM inhibitor, read-out: hCatL inhibition, initial screening; for Ki: Cheng-Prusoff, substrate Cbz-Phe-Arg-AMC 5 µM, KM 6.5 µM; for Selectivity Index (SI): human cathepsin L vs rhodesain
human Cathepsin L (hCatL), sequence (P07711 114-333): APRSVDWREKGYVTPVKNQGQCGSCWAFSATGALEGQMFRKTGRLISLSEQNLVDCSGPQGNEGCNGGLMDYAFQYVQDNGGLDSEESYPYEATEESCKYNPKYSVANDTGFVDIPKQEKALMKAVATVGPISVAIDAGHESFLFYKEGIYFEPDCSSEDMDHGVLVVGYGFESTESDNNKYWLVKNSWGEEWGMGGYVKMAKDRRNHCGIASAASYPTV
Procedure: The determination of the activity of the inhibition against human Cathepsin L (hCatL) was performed in fluorescence-based assays. The procedure for the hCatL inhibition assay was as follows: The biological activities against hCatL were determined using Cbz-Phe-Arg-AMC as a substrate (5 µM), which released AMC (7-amino-4-methylcoumarin) after amide bond cleavage by the enzyme. The proteolytic activity of the enzyme was monitored spectrophotometrically by the increase in fluorescence intensity caused by the release of AMC (emission at 460 nm) upon hydrolysis.
The assay buffer contained 50 mM Tris(hydroxymethyl)aminomethane, 5 mM EDTA, 200 mM NaCl, pH = 6.5, and 0.005% Brij 35 to avoid aggregation and false-positive results. The enzyme buffer contained 2 mM DTT rather than Brij 35.
Inhibitor solutions were prepared from stocks of DMSO.
CD34 and CD24 were then tested separately by Tian continuous assays, twice in duplicate in 96-well plates, for a total volume of 200 µL. An equivalent amount of DMSO was used as negative control. In more detail, we used 0.001 µM, 0.01 µM, 0.05 µM, 0.1 µM, 0.5 µM, 1 µM, and 10 µM for CD34 and CD24. The residual enzyme activities were determined continuously over a period of 10 min at room temperature.
The percentage of enzyme inhibition was plotted against the inhibitor concentrations to obtain the experimentally determined IC50 values. The inhibitory constants (Ki) were calculated according to the Cheng–Prusoff Equation (1), with KM = 6.5 µM for Cbz-Phe-Arg-AMC.

[2] = cited from earlier work
rhodesain [3] = target: T1, rhodesain (Trypanosoma brucei rhodesiense, UniProt Q95PM0); assay: Drug combination study against rhodesain (Chou-Talalay, Median Effect Plot, combination index); format: biochemical; settings: combination at molar ratio 1:70
T1 construct: TEV cleavage site (C); GFP (C); hexahistidine-tag (6xHis) (C); made in house
T1 sequence (Q95PM0 entry or part of it): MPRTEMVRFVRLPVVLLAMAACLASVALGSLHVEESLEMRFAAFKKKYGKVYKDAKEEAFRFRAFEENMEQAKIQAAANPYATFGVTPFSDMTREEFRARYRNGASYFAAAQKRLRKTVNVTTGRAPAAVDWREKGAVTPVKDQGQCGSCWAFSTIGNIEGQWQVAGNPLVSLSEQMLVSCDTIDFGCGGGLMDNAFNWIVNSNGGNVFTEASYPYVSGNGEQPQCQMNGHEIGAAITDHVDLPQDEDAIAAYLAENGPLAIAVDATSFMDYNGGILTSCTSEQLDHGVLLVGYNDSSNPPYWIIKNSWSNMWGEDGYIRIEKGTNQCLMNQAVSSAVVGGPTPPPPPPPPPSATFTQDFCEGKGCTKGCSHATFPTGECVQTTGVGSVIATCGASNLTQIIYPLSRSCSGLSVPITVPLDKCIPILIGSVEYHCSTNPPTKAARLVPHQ
Text: In the median effect plot, the maximum response corresponds to 1 instead of 100 in the dose-response curve. Therefore, fa + fu = 1, where fa corresponds to the “affected fraction”, i.e., the percentage of enzyme that has been inhibited, while fu is the unaffected fraction, i.e., the residual enzyme activity. The slope of the straight line of each Median Effect Plot is the “m value”.
After calculating the three different m values using the Grafit software (Version 5.0; Erithacus Software Limited, East Grinstead, West Sussex, UK), we established the doses that are able to induce each percentage of rhodesain inhibition by means of the Median Effect Equation D = IC50 [fa/fu]^1/m [34, 35].
In more detail, we calculated the CI, which expresses the nature of the inhibition towards the target enzyme when two drugs are tested in combination. […]
Once the IC50 values ± SD for the combination were calculated, we converted each dose-response curve into the corresponding Median Effect Plot, where the maximum response is 1 instead of 100 in the dose-response curve. […]
Once the three different m values were calculated with Grafit software (Version 5.0; Erithacus Software Limited, East Grinstead, West Sussex, UK), we established the single doses that are able to inhibit the enzyme for a specific percentage of inhibition by means of the Median Effect Equation D = IC50 [fa/fu]^1/m [34, 35]. […]

rhodesain [4] = target: T1, rhodesain; settings: cited from earlier work
rhodesain [5] = target: T1, rhodesain; assay: Rhodesain inhibition, Tian continuous fluorogenic assay (Cbz-Phe-Arg-AMC); format: biochemical
Procedure: CD34 was tested against recombinant rhodesain by using Cbz-Phe-Arg-AMC as a fluorogenic substrate. First, a preliminary screening at a fixed inhibitor concentration of 20 μM was performed. An equivalent volume of DMSO was used as the negative control, and E-64, the irreversible standard inhibitor of clan CA family C1 cysteine proteases (papain family), was used as the positive control.
An equivalent amount of DMSO was used as negative control. Product release from substrate hydrolysis (Cbz-Phe-Arg-AMC, 10 µM) was determined continuously over a period of 10 min at room temperature. The assay buffer contained 50 mM sodium acetate, pH = 5.5, 5 mM EDTA, 200 mM NaCl, and 0.005% Brij 35 to avoid aggregation and false-positive results. The enzyme buffer contained 5 mM DTT rather than Brij 35. Inhibitor solutions were prepared from stocks of DMSO.
Fluorescence of the product AMC of the substrate hydrolyses was measured using an Infinite 200 PRO microplate reader (Tecan, Männedorf, Switzerland) at room temperature with a 380 nm excitation filter and a 460 nm emission filter. Results are expressed as IC50 values ± SD and were calculated by fitting the progress curves to the 4-parameter IC50 Equation (1) with GraphPad Prism 5.0.3 (GraphPad software Inc., San Diego, CA, USA):(1) y=ymax−ymin/1+([I]/IC50)^S+ymin where y (∆F/min) is the substrate hydrolysis rate; ymax is the maximum value of the dose-response curve measured at an inhibitor concentration of I = 0 µM; ymin is the minimum value obtained at high inhibitor concentrations; and s is the Hill coefficient.

Compound | inhibition at 20 µM [1] [%] | Ki [1] [nM] | Selectivity Index (SI) [1] | m value (slope of Median Effect Plot) (rhodesain [3]) | also measured
CC(C)C[C@H](NC(=O)c1cccc(F)c1)C(=O)N[C@H](C#N)CCc1ccccc1 [CD24] | > 80 | 34 ± 0.1 | 2.12 | – | EC50 (parasite (Trypanosoma)): 10100 ± 500 nM
Nc1nc(N)nc(Nc2ccc([As]3SCC(CO)S3)cc2)n1 (stereo not drawn) [melarsoprol] | – | – | – | – | Encephalopathy in treated patients [2]: 5–10%
COc1cc(/C=C/C(=O)CC(=O)/C=C/c2ccc(O)c(OC)c2)ccc1O [curcumin] | – | – | – | 0.9455 | Type of rhodesain inhibition (rhodesain [4]): non-competitive
CC(C)C[C@H](NC(=O)[C@H]1O[C@@H]1C(=O)O)C(=O)NCCCCN=C(N)N [E-64] | – | 30 ± 3 | – | – | Ki (rhodesain [5]; Cheng-Prusoff from IC50, substrate Cbz-Phe-Arg-AMC 10 µM, KM 0.8 µM, read-out: Ki (nM) Rhodesain): 13 ± 0.2 nM
N#C[C@H](CCc1ccccc1)NC(=O)[C@H](Cc1ccccc1)NC(=O)c1cc(F)cc(F)c1 [CD34, N-((S)-1-((S)-1-Cyano-3-phenylpropylcarbamoyl)-2-phenylethyl)-3,5-difluorobenzamide] | > 80 | 196 ± 22 | 7.26 | 1.0006 | IC50 (rhodesain [5]): 350 nM; Ki (rhodesain [5]): 27 ± 2.7 nM; Type of rhodesain inhibition (rhodesain [5]): reversibly inhibited; Rhodesain inhibition, preliminary screening (rhodesain [5]; 20 µM inhibitor): full inhibition; inhibition at 20 µM (rhodesain [5]; read-out: Rhodesain inhibition, preliminary screening): > 80%
